Tested on: P12-Ichikawa
Assay: cell viability relative to DMSO control; higher = less cytotoxic
Conditions: 48 h
Summary of the method: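 Before seeding, each leukemia line was adapted for at least four passages in each medium. NOMO1 or SEM cells (500 cells/well) and P12-Ichikawa cells (1000 cells/well) went into 1536-well plates at 5 μl, then received library compounds in DMSO by pin dosing across 11 threefold concentrations, 47 μM to 0.79 nM. Readout was CellTiter-Glo One luminescence after 48 h at 37°C, and viability is given as a per-plate percentage of DMSO wells, with cell-free wells as background.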

[1] = HPLM + 10% dialyzed FBS, 0.000781 µM
[2] = HPLM + 10% dialyzed FBS, 0.00234 µM
[3] = HPLM + 10% dialyzed FBS, 0.00702 µM
[4] = HPLM + 10% dialyzed FBS, 0.0211 µM
[5] = HPLM + 10% dialyzed FBS, 0.0632 µM
[6] = HPLM + 10% dialyzed FBS, 0.19 µM
[7] = HPLM + 10% dialyzed FBS, 0.569 µM
[8] = HPLM + 10% dialyzed FBS, 1.71 µM
[9] = HPLM + 10% dialyzed FBS, 5.12 µM
[10] = HPLM + 10% dialyzed FBS, 15.4 µM
[11] = HPLM + 10% dialyzed FBS, 46.1 µM
[12] = RPMI 5 mM glucose + 10% FBS, 0.000781 µM
[13] = RPMI 5 mM glucose + 10% FBS, 0.00234 µM
[14] = RPMI 5 mM glucose + 10% FBS, 0.00702 µM
[15] = RPMI 5 mM glucose + 10% FBS, 0.0211 µM
[16] = RPMI 5 mM glucose + 10% FBS, 0.0632 µM
[17] = RPMI 5 mM glucose + 10% FBS, 0.19 µM
[18] = RPMI 5 mM glucose + 10% FBS, 0.569 µM
[19] = RPMI 5 mM glucose + 10% FBS, 1.71 µM
[20] = RPMI 5 mM glucose + 10% FBS, 5.12 µM
[21] = RPMI 5 mM glucose + 10% FBS, 15.4 µM
[22] = RPMI 5 mM glucose + 10% FBS, 46.1 µM
[23] = RPMI 5 mM glucose + 10% dialyzed FBS, 0.000781 µM
[24] = RPMI 5 mM glucose + 10% dialyzed FBS, 0.00234 µM
[25] = RPMI 5 mM glucose + 10% dialyzed FBS, 0.00702 µM
[26] = RPMI 5 mM glucose + 10% dialyzed FBS, 0.0211 µM
[27] = RPMI 5 mM glucose + 10% dialyzed FBS, 0.0632 µM
[28] = RPMI 5 mM glucose + 10% dialyzed FBS, 0.19 µM
[29] = RPMI 5 mM glucose + 10% dialyzed FBS, 0.569 µM
[30] = RPMI 5 mM glucose + 10% dialyzed FBS, 1.71 µM
[31] = RPMI 5 mM glucose + 10% dialyzed FBS, 5.12 µM
[32] = RPMI 5 mM glucose + 10% dialyzed FBS, 15.4 µM
[33] = RPMI 5 mM glucose + 10% dialyzed FBS, 46.1 µM

SMILES: CCc1cc(/C(C)=N/OCc2ccc(C3CCCCC3)c(C(F)(F)F)c2)ccc1CN1CC(C(=O)O)C1
- cell viability [1]: 111%
- cell viability [2]: 110%
- cell viability [3]: 112%
- cell viability [4]: 119%
- cell viability [5]: 120%
- cell viability [6]: 114%
- cell viability [7]: 121%
- cell viability [8]: 108%
- cell viability [9]: 105%
- cell viability [10]: 30.3%
- cell viability [11]: 18.9%
- cell viability [12]: 109%
- cell viability [13]: 99%
- cell viability [14]: 105%
- cell viability [15]: 108%
- cell viability [16]: 110%
- cell viability [17]: 106%
- cell viability [18]: 108%
- cell viability [19]: 107%
- cell viability [20]: 94.4%
- cell viability [21]: 22.5%
- cell viability [22]: 18.7%
- cell viability [23]: 111%
- cell viability [24]: 111%
- cell viability [25]: 116%
- cell viability [26]: 109%
- cell viability [27]: 109%
- cell viability [28]: 116%
- cell viability [29]: 114%
- cell viability [30]: 106%
- cell viability [31]: 100%
- cell viability [32]: 20.7%
- cell viability [33]: 18.6%

SMILES: CC(C)[C@H](CO)Nc1nc(Nc2ccc(C(=O)O)c(Cl)c2)c2ncn(C(C)C)c2n1
- cell viability [1]: 119%
- cell viability [2]: 120%
- cell viability [3]: 116%
- cell viability [4]: 121%
- cell viability [5]: 119%
- cell viability [6]: 115%
- cell viability [7]: 96.1%
- cell viability [8]: 103%
- cell viability [9]: 87.1%
- cell viability [10]: 96.3%
- cell viability [11]: 92.9%
- cell viability [12]: 111%
- cell viability [13]: 124%
- cell viability [14]: 117%
- cell viability [15]: 134%
- cell viability [16]: 127%
- cell viability [17]: 130%
- cell viability [18]: 95.7%
- cell viability [19]: 88.4%
- cell viability [20]: 89.2%
- cell viability [21]: 93%
- cell viability [22]: 69.9%
- cell viability [23]: 119%
- cell viability [24]: 122%
- cell viability [25]: 130%
- cell viability [26]: 111%
- cell viability [27]: 120%
- cell viability [28]: 129%
- cell viability [29]: 102%
- cell viability [30]: 94%
- cell viability [31]: 87.1%
- cell viability [32]: 102%
- cell viability [33]: 73.7%

SMILES: CN(C(=O)c1ccc(F)cc1C(F)(F)F)C1CCN(c2nnc(-c3ccnn3C)c3ccccc23)CC1
- cell viability [1]: 74.9%
- cell viability [2]: 88.9%
- cell viability [3]: 77.9%
- cell viability [4]: 85.9%
- cell viability [5]: 89.2%
- cell viability [6]: 81.8%
- cell viability [7]: 82.1%
- cell viability [8]: 84.5%
- cell viability [9]: 79.4%
- cell viability [10]: 85.4%
- cell viability [11]: 47.3%
- cell viability [12]: 75.1%
- cell viability [13]: 83.3%
- cell viability [14]: 81.5%
- cell viability [15]: 76.2%
- cell viability [16]: 78.5%
- cell viability [17]: 81.5%
- cell viability [18]: 79.4%
- cell viability [19]: 71.7%
- cell viability [20]: 75.3%
- cell viability [21]: 82.8%
- cell viability [22]: 39.6%
- cell viability [23]: 73.7%
- cell viability [24]: 70.6%
- cell viability [25]: 72.8%
- cell viability [26]: 78.5%
- cell viability [27]: 79.9%
- cell viability [28]: 84.8%
- cell viability [29]: 75.9%
- cell viability [30]: 75.1%
- cell viability [31]: 74.3%
- cell viability [32]: 77.7%
- cell viability [33]: 38.2%

SMILES: O=C(Oc1ccc([N+](=O)[O-])cc1)N1CCN(Cc2cccc(Oc3ccccc3)c2)CC1
- cell viability [1]: 96.8%
- cell viability [2]: 101%
- cell viability [3]: 106%
- cell viability [4]: 116%
- cell viability [5]: 113%
- cell viability [6]: 112%
- cell viability [7]: 114%
- cell viability [8]: 111%
- cell viability [9]: 113%
- cell viability [10]: 102%
- cell viability [11]: 104%
- cell viability [12]: 105%
- cell viability [13]: 98%
- cell viability [14]: 112%
- cell viability [15]: 114%
- cell viability [16]: 111%
- cell viability [17]: 112%
- cell viability [18]: 122%
- cell viability [19]: 118%
- cell viability [20]: 102%
- cell viability [21]: 102%
- cell viability [22]: 107%
- cell viability [23]: 101%
- cell viability [24]: 92.2%
- cell viability [25]: 100%
- cell viability [26]: 101%
- cell viability [27]: 105%
- cell viability [28]: 101%
- cell viability [29]: 105%
- cell viability [30]: 114%
- cell viability [31]: 103%
- cell viability [32]: 109%
- cell viability [33]: 108%

SMILES: C[Se]CCC(N)C(=O)O (stereo not drawn)
- cell viability [1]: 88.7%
- cell viability [2]: 86.3%
- cell viability [3]: 89.6%
- cell viability [4]: 84.9%
- cell viability [5]: 88.4%
- cell viability [6]: 85.1%
- cell viability [7]: 87.4%
- cell viability [8]: 88.7%
- cell viability [9]: 78.8%
- cell viability [10]: 78.8%
- cell viability [11]: 78.6%
- cell viability [12]: 77.1%
- cell viability [13]: 84.8%
- cell viability [14]: 81.9%
- cell viability [15]: 82.6%
- cell viability [16]: 85.9%
- cell viability [17]: 84.4%
- cell viability [18]: 81.6%
- cell viability [19]: 79.6%
- cell viability [20]: 83.1%
- cell viability [21]: 79%
- cell viability [22]: 75.6%
- cell viability [23]: 85.9%
- cell viability [24]: 77.2%
- cell viability [25]: 83.2%
- cell viability [26]: 85.1%
- cell viability [27]: 88.2%
- cell viability [28]: 85.8%
- cell viability [29]: 74.9%
- cell viability [30]: 76.4%
- cell viability [31]: 80.7%
- cell viability [32]: 78.1%
- cell viability [33]: 79%

SMILES: CN(C)CCC=C1C2=C(C=CC=C2)\C=C/C3=C1C=CC=C3
- cell viability [1]: 109%
- cell viability [2]: 118%
- cell viability [3]: 114%
- cell viability [4]: 117%
- cell viability [5]: 120%
- cell viability [6]: 123%
- cell viability [7]: 106%
- cell viability [8]: 105%
- cell viability [9]: 96.9%
- cell viability [10]: 105%
- cell viability [11]: 87.1%
- cell viability [23]: 115%
- cell viability [24]: 109%
- cell viability [25]: 105%
- cell viability [26]: 115%
- cell viability [27]: 119%
- cell viability [28]: 107%
- cell viability [29]: 111%
- cell viability [30]: 102%
- cell viability [31]: 106%
- cell viability [32]: 105%
- cell viability [33]: 84.1%

SMILES: CC(Oc1ccc(O)cc1)(P(=O)(O)O)P(=O)(O)O
- cell viability [1]: 102%
- cell viability [2]: 101%
- cell viability [3]: 94.9%
- cell viability [4]: 100%
- cell viability [5]: 101%
- cell viability [6]: 99.2%
- cell viability [7]: 90.3%
- cell viability [8]: 94.9%
- cell viability [9]: 85.3%
- cell viability [10]: 67.8%
- cell viability [11]: 46.7%
- cell viability [12]: 92.5%
- cell viability [13]: 97.8%
- cell viability [14]: 95%
- cell viability [15]: 93.7%
- cell viability [16]: 100%
- cell viability [17]: 98.2%
- cell viability [18]: 82.2%
- cell viability [19]: 87.2%
- cell viability [20]: 81.5%
- cell viability [21]: 42.8%
- cell viability [22]: 33.6%
- cell viability [23]: 97.1%
- cell viability [24]: 97.5%
- cell viability [25]: 88.6%
- cell viability [26]: 98.4%
- cell viability [27]: 107%
- cell viability [28]: 101%
- cell viability [29]: 90.7%
- cell viability [30]: 93.1%
- cell viability [31]: 87.6%
- cell viability [32]: 47.2%
- cell viability [33]: 34.6%

SMILES: CC1(C)OC/2=C(\[C@H](NCC3=CC=CC=C3)[C@@H]1O)C(=O)C4=CC=CC=C4C2=O
- cell viability [1]: 102%
- cell viability [2]: 106%
- cell viability [3]: 107%
- cell viability [4]: 104%
- cell viability [5]: 106%
- cell viability [6]: 108%
- cell viability [7]: 102%
- cell viability [8]: 94%
- cell viability [9]: 96.4%
- cell viability [10]: 47.8%
- cell viability [11]: 6.77%
- cell viability [12]: 100%
- cell viability [13]: 102%
- cell viability [14]: 102%
- cell viability [15]: 115%
- cell viability [16]: 96.4%
- cell viability [17]: 99.8%
- cell viability [18]: 98.8%
- cell viability [19]: 88.3%
- cell viability [20]: 71.8%
- cell viability [21]: 18.7%
- cell viability [22]: 6.26%
- cell viability [23]: 98.5%
- cell viability [24]: 94.9%
- cell viability [25]: 95.1%
- cell viability [26]: 101%
- cell viability [27]: 101%
- cell viability [28]: 101%
- cell viability [29]: 101%
- cell viability [30]: 96.7%
- cell viability [31]: 75.8%
- cell viability [32]: 54.6%
- cell viability [33]: 5.89%
